These results are taken from publication PMC8308496, “RP-18 TLC Chromatographic and Computational Study of Skin Permeability of Steroids” (Pharmaceuticals, 2021).

Where two headings read alike, the source gives them in different places.

Data set [1] in a line: RP-18 thin layer chromatography (RM). It is filed as physicochemical. Particulars: RP-18 F254s TLC, acetonitrile/pH 7.4 phosphate buffered saline 70:30 (v/v); RM = log (1/Rf−1). How it is done:
Thin layer chromatography was performed according to [33] on 10 × 20 cm glass-backed RP-18 F254s TLC plates from Merck, Germany (layer thickness 0.25 mm). Before use, the plates were prewashed with methanol-dichloromethane 1:1 (v/v) and dried overnight in ambient conditions. […] The chromatographic plates were developed in a vertical chromatographic chamber lined with filter paper and previously saturated with the mobile phase vapor for 20 min. The mobile phase consisted of acetonitrile/pH 7.4 phosphate buffered saline 70:30 (v/v). The development distance was 95 mm from the plate bottom edge. After development, the plates were dried at room temperature and examined under UV light (254 nm) and with the Desaga CD60 densitometer (Multiwavelength Scan, 200–300 nm at 20 nm intervals). All chromatograms were repeated in duplicate, and the mean Rf values were used in further investigations. The chromatographic parameter RM considered in these investigations was defined by Bate-Smith and Westall: RM= log (1/Rf−1).

For data set [2] the following is noted: experimental, cited from earlier work.
The mark [3] stands for this setting: hydrocortisone esters 17 to 27, ref 40 (Anderson et al.).
Where [4] appears, read: nonsteroid compounds 39 to 46, source not given.

In the case of `C[C@@H]1C[C@H]2[C@@H]3CCC4=CC(=O)C=C[C@]4(C)[C@@]3(F)[C@@H](O)C[C@]2(C)[C@@]1(O)C(=O)CO` [compound 1, Dexamethasone], the RM in data set [1] is on record as −0.35.
In turn, `C[C@]12CCC(=O)C=C1CC[C@@H]1[C@@H]2[C@@H](O)C[C@@]2(C)[C@H]1CC[C@]2(O)C(=O)CO` [compound 2, Hydrocortisone] had an RM in data set [1] of −0.33. Further, the “logKp^exp” value in data set [2] (compounds 1 to 16) is given as −4.79.
In data set [1], `CC(=O)[C@H]1CC[C@H]2[C@@H]3CCC4=CC(=O)CC[C@]4(C)[C@H]3CC[C@]12C` [compound 3, Progesterone] showed an RM of 0.60.
Consider `C[C@]12C=CC(=O)C=C1CC[C@@H]1[C@@H]2[C@@H](O)C[C@@]2(C)[C@H]1CC[C@]2(O)C(=O)CO` [compound 4, Prednisolone], for which the RM in data set [1] was −0.33. Also, in data set [2] (compounds 1 to 16), the “logKp^exp” value is on record as −4.35.
The compound `C[C@]12CC[C@@H]3c4ccc(O)cc4CC[C@H]3[C@@H]1CCC2=O` [compound 5, Estrone] returned an RM in data set [1] of 0.09. For the same compound, the “logKp^exp” value in data set [2] (compounds 1 to 16) is listed as −2.44.
For `C[C@]12CCC(=O)C=C1CC[C@@H]1[C@@H]2[C@@H](O)C[C@]2(C=O)[C@@H](C(=O)CO)CC[C@@H]12` [compound 6, Aldosterone], the “logKp^exp” value in data set [2] (compounds 1 to 16) was −4.41.
As to `CC(=O)[C@H]1CC[C@H]2[C@@H]3CC=C4C[C@@H](O)CC[C@]4(C)[C@H]3CC[C@]12C` [compound 8, Pregnenolone], in data set [2] (compounds 1 to 16), the “logKp^exp” value was −2.82.
`CC(=O)[C@@]1(O)CC[C@H]2[C@@H]3CCC4=CC(=O)CC[C@]4(C)[C@H]3CC[C@@]21C` [compound 9, 17-α-Hydroxyprogesterone]: the “logKp^exp” value in data set [2] (compounds 1 to 16) was −3.22.
In the case of `C[C@]12CC[C@H]3[C@@H](CCC4=CC(=O)CC[C@@]43C)[C@@H]1CC[C@@H]2C(=O)CO` [compound 11, Deoxycorticosterone], in data set [2] (compounds 1 to 16), the “logKp^exp” value is reported as −3.34.
For `C[C@]12CC[C@H]3[C@@H](CCC4=CC(=O)CC[C@@]43C)[C@@H]1CC[C@@H]2O` [compound 12, Testosterone], in data set [2] (compounds 1 to 16), the “logKp^exp” value is given as −2.65.
As for `C[C@]12CCC(=O)C=C1CC[C@@H]1[C@@H]2CC[C@@]2(C)[C@H]1CC[C@]2(O)C(=O)CO` [compound 13, Cortexolone], the “logKp^exp” value in data set [2] (compounds 1 to 16) is −4.12.
As to `C[C@]12CC[C@@H]3c4ccc(O)cc4CC[C@H]3[C@@H]1CC[C@@H]2O` [compound 14, Estradiol], the “logKp^exp” value in data set [2] (compounds 1 to 16) is −2.21.
Take `C[C@]12CCC(=O)C=C1CC[C@@H]1[C@@H]2C(=O)C[C@@]2(C)[C@H]1CC[C@]2(O)C(=O)CO` [compound 16, Cortisone]: the “logKp^exp” value in data set [2] (compounds 1 to 16) is listed as −5.00.
Regarding `C[C@]12CCC(=O)C=C1CC[C@@H]1[C@@H]2[C@@H](O)C[C@@]2(C)[C@H]1CC[C@]2(O)C(=O)COC(=O)CCCCCO` [compound 23, HC 6-hydroxyhexanoate], the “logKp^exp” value in data set [2] (setting [3]) is reported as −3.04.
`COC(=O)CCCCCC(=O)OCC(=O)[C@@]1(O)CC[C@H]2[C@@H]3CCC4=CC(=O)CC[C@]4(C)[C@H]3[C@@H](O)C[C@@]21C` [compound 25, HC methylpimelate]: the “logKp^exp” value in data set [2] (setting [3]) was −2.27.
With `CCCCCC(=O)OCC(=O)[C@@]1(O)CC[C@H]2[C@@H]3CCC4=CC(=O)CC[C@]4(C)[C@H]3[C@@H](O)C[C@@]21C` [compound 26, HC hexanoate], the “logKp^exp” value in data set [2] (setting [3]) was −1.74.
In the case of `CCCCCCCC(=O)OCC(=O)[C@@]1(O)CC[C@H]2[C@@H]3CCC4=CC(=O)CC[C@]4(C)[C@H]3[C@@H](O)C[C@@]21C` [compound 27, HC octanoate], the “logKp^exp” value in data set [2] (setting [3]) was −1.21.
`C[C@]12CC[C@@H]3c4ccc(OC(=O)c5ccccc5)cc4CC[C@H]3[C@@H]1CC[C@@H]2O` [compound 28, Estradiol benzoate] displayed an RM in data set [1] of 0.91.
Still for that read-out and setting: with `CC(=O)OCC(=O)[C@@]1(O)CC[C@H]2[C@@H]3CCC4=CC(=O)CC[C@]4(C)[C@H]3[C@@H](O)C[C@@]21C` [compound 29, HC acetate] the figure was −0.12.
On the same count and under the same terms, then `CC(=O)OCC(=O)[C@H]1CC[C@H]2[C@@H]3CCC4=CC(=O)CC[C@]4(C)[C@H]3CC[C@]12C` [compound 30, Deoxycortisone acetate], with 0.41.
The same measure, in the same setting: with `CC(=O)OCC(=O)[C@@]1(O)CC[C@H]2[C@@H]3CCC4=CC(=O)CC[C@]4(C)[C@H]3C(=O)C[C@@]21C` [compound 31, Cortisone acetate] the figure was −0.12; with `CCC(=O)O[C@H]1CC[C@H]2[C@@H]3CCC4=CC(=O)CC[C@]4(C)[C@H]3CC[C@]12C` [compound 32, Testosterone propionate], 0.85.
Turning to `C[C@]12CCC(=O)C=C1CC[C@@H]1[C@@H]2CC[C@@]2(C)[C@H]1CC[C@]2(C)O` [compound 33, Methyltestosterone], the RM in data set [1] was determined as 0.41.
Still for that read-out and setting: then `CCCCCCC(=O)O[C@H]1CC[C@H]2[C@@H]3CCC4=CC(=O)CC[C@]4(C)[C@H]3CC[C@]12C` [compound 34, Testosterone enanthate], with 1.38.
For the compound `CC(=O)S[C@@H]1CC2=CC(=O)CC[C@]2(C)[C@H]2CC[C@@]3(C)[C@@H](CC[C@@]34CCC(=O)O4)[C@H]12` [compound 35, Spironolactone], the RM in data set [1] was 0.14.
Still for that read-out and setting: with `COC(=O)[C@@H]1CC2=CC(=O)CC[C@]2(C)[C@@]23O[C@@H]2C[C@@]2(C)[C@@H](CC[C@@]24CCC(=O)O4)[C@H]13` [compound 36, Eplerenone] the figure was −0.21; with `C[C@H]1O[C@@H](O[C@H]2[C@@H](O)C[C@H](O[C@H]3[C@@H](O)C[C@H](O[C@H]4CC[C@@]5(C)[C@H](CC[C@@H]6[C@@H]5C[C@@H](O)[C@]5(C)[C@@H](C7=CC(=O)OC7)CC[C@]65O)C4)O[C@@H]3C)O[C@@H]2C)C[C@H](O)[C@@H]1O` [compound 37, Digoxin], −0.91; with `C#C[C@]1(O)CC[C@H]2[C@@H]3[C@H](C)CC4=C(CCC(=O)C4)[C@H]3CC[C@@]21C` [compound 38, Tibolone], 0.33.
`CC(C)Cc1ccc(C(C)C(=O)O)cc1` (centres unmarked) [compound 39, Ibuprofen] returned an RM in data set [1] of 0.08. Further, the “logKp^exp” value in data set [2] (setting [4]) is recorded as −1.44.
In the case of `CNC(=C[N+](=O)[O-])NCCSCc1ccc(CN(C)C)o1` [compound 40, Ranitidine], the RM in data set [1] is given as −0.66.
On to `CC(=O)Oc1ccccc1C(=O)O` [compound 41, Aspirin], for which the RM in data set [1] is reported as −0.50. Further, the “logKp^exp” value in data set [2] (setting [4]) is reported as −2.14.
Consider `COC(=O)c1ccc(O)cc1` [compound 42, Methylparaben], for which the RM in data set [1] is recorded as −0.41. Moreover, the “logKp^exp” value in data set [2] (setting [4]) is −2.04.
In data set [1], `O=C(O)c1ccccc1O` [compound 43, Salicylic acid] had an RM of −0.37. For the same compound, the “logKp^exp” value in data set [2] (setting [4]) is on record as −2.84.
In turn, `COc1ccc2c(c1)c(CC(=O)O)c(C)n2C(=O)c1ccc(Cl)cc1` [compound 44, Indomethacin] yielded an RM in data set [1] of −0.07.
The compound `CN1C(C(=O)Nc2ccccn2)=C(O)c2ccccc2S1(=O)=O` [compound 45, Piroxicam] returned an RM in data set [1] of 0.00. For the same compound, in data set [2] (setting [4]), the “logKp^exp” value is −3.81.
For the compound `COc1ccc2cc([C@H](C)C(=O)O)ccc2c1` [compound 46, Naproxen], in data set [1], the RM is −0.16.
